Measurements as given in patent US9345247B2, “Azaindole carboxylic acid amides and azaindole thiocarboxylic acid amides for use as insecticides and acaricides” (BAYER CROPSCIENCE AG, priority 2012, dated 2016).
Where two headings read alike, the source gives them in different places.

How the values were obtained:
[1] = log P by HPLC on reversed-phase column (C18), EEC directive 79/831 Annex V.A8; assay type: physicochemical; settings: for chromatographic logP: reversed-phase HPLC column (C18)
Protocol: a) The determination of the W by LC-MS in the acidic range is effected at pH 2.7, acetonitrile (contains 0.1% formic acid) and water as eluents; linear gradient from 10% acetonitrile to 95% acetonitrile, instrument: Agilent 1100 LC-System, Agilent MSD System, HTS PAL. The log P values reported in the tables and Preparation Examples above were determined in accordance with EEC directive 79/831 Annex V.A8 by HPLC (High Performance Liquid Chromatography) using a reversed-phase column (C18). Temperature 43° C. The calibration is effected with unbranched alkan-2-ones (having 3 to 16 carbon atoms), for which the log P values are known.

[2] = tested on: greenhouse red spider mite (Tetranychus urticae); test: Tetranychus urticae spray test, OP-resistant (TETRUR); assay type: in vivo; settings: for efficacy: 100 g/ha, spray, after 6 days
Protocol: (§1) To produce a suitable active compound formulation, 1 part by weight of active compound is mixed with the stated amounts of solvent and emulsifier, and the concentrate is diluted with emulsifier-containing water to the desired concentration.
Discs of bean leaves (Phaseolus vulgaris) infested by all stages of the greenhouse red spider mite (Tetranychus urticae) are sprayed with an active compound formulation of the desired concentration.
After 6 days, the efficacy in % is determined 100% means that all the spider mites have been killed; 0% means that none of the spider mites have been killed. […]

[3] = tested on: larvae of the mustard beetle (Phaedon cochleariae); test: Phaedon cochleariae spray test (PHAECO); assay type: in vivo; settings: for efficacy / pest or weed control at 100 g/ha: spray, after 7 days; for pest or weed control at 100 g/ha: read-out: efficacy
Protocol: Phaedon cochleariae—Spray Test (PHAECO)
(§2) To produce a suitable preparation of active compound, 1 part by weight of active compound is mixed with the stated amounts of solvent and emulsifier, and the concentrate is diluted with emulsifier-containing water to the desired concentration.
Discs of Chinese cabbage leaves (Brassica pekinensis) are sprayed with an active compound formulation of the desired concentration and, after drying, populated with larvae of the mustard beetle (Phaedon cochleariae).
After 7 days, the efficacy in % is determined. 100% means that all the beetle larvae have been killed; 0% means that no beetle larvae have been killed.
After the stated period of time, the effect in % is determined 100% means that all the beetle larvae have been killed; 0% means that no beetle larvae have been killed.

[4] = tested on: caterpillars of the armyworm (Spodoptera frugiperda); test: Spodoptera frugiperda spray test (SPODFR); assay type: in vivo; settings: for efficacy: spray, after 7 days
Protocol: Spodoptera frugiperda—Spray Test (SPODFR)
as §1
Leaf discs of maize (Zea mays) are sprayed with an active compound formulation of the desired concentration and, after drying, populated with caterpillars of the armyworm (Spodoptera frugiperda).
After 7 days, the efficacy in % is determined. 100% means that all the caterpillars have been killed; 0% means that no caterpillars have been killed.
as §2
Leaf discs of maize (Zea mays) are sprayed with an active compound preparation of the desired concentration and, after drying, populated with caterpillars of the armyworm (Spodoptera frugiperda).
After the stated period of time, the effect in % is determined. 100% means that all the caterpillars have been killed; 0% means that no caterpillars have been killed.

[5] = tested on: Boophilus microplus; test: Boophilus microplus test (BOOPMI injection); assay type: in vivo; settings: 20 μg/animal, after 7 days
Protocol: Boophilus microplus Test (BOOPMI Injection) [table] To produce a suitable active compound formulation, 10 mg of active compound are mixed with 0.5 ml of solvent and the concentrate is diluted with solvent to the desired concentration. The active compound solution is injected into the abdomen (Boophilus microplus), and the animals are transferred into dishes and stored in a climate-controlled room. After 7 days, the efficacy in % is determined. The activity is assessed by laying of fertile eggs. 100% means that none of the ticks has laid any fertile eggs.

[6] = tested on: Lucilia cuprina larvae; test: Lucilia cuprina test (LUCICU); assay type: in vivo; settings: 100 ppm, after 2 days
Protocol: Lucilia cuprina Test (LUCICU) [table] To produce a suitable active compound formulation, 10 mg of active compound are mixed with 0.5 ml of dimethyl sulfoxide, and the concentrate is diluted with water to the desired concentration. Vessels containing horse meat treated with the active compound formulation of the desired concentration are populated with about 20 Lucilia cuprina larvae. After 2 days, the kill in % is determined 100% means that all the larvae have been killed; 0% means that none of the larvae have been killed.

[7] = HPLC, acidic range pH 2.7, 43° C.
[8] = Phaedon cochleariae, 168 h, 100 g/ha
[9] = HPLC, acidic range pH 2.7, 43° C., read-out: log p

| log p [1, 7] | Compound | efficacy ([3]; 100 g/ha) | efficacy ([4]; 100 g/ha) | other results |
| --- | --- | --- | --- | --- |
| 3.39 | CCn1c(C(=O)NC(c2ccc(F)c(Cl)c2)C(F)(F)F)cc2cc(C(=O)NC3CC3)c(C)nc21 (stereo not shown) [Compound 9] |  | 100% | efficacy ([3]; 20 g/ha): 100% |
| 4.32 | CCn1c(C(=O)NC(c2cc(Cl)c(F)c(Cl)c2F)C(F)(F)F)cc2cc(C(=O)NC3(C#N)CC3)c(Cl)nc21 (stereo not shown) [Compound 31] | 100% | 100% |  |
| 3.39 | CCn1c(C(=O)NC(c2cccc(C(F)(F)F)c2)C(F)(F)F)cc2cc(C(=O)NCc3ncccn3)c(Cl)nc21 (stereo not shown) [Compound 47] | 100% |  |  |
| 4.08 | CCn1c(C(=O)NC(c2ccc(F)c(C(F)(F)F)c2)C(F)(F)F)cc2cc(C(=O)NC(C)C)c(Cl)nc21 (stereo not shown) [Compound 50] | 100% |  |  |
| 3.40 | CCn1c(C(=O)NC(c2cccc(C(F)(F)F)c2)C(F)(F)F)cc2cc(C(=O)NC)c(Cl)nc21 (stereo not shown) [Compound 51] | 100% |  |  |
| 3.70 | CCNC(=O)c1cc2cc(C(=O)NC(c3cccc(C(F)(F)F)c3)C(F)(F)F)n(CC)c2nc1Cl (stereo not shown) [Compound 52] | 100% |  |  |
| 3.32 | CCn1c(C(=O)NC(c2ccc(F)c(C(F)(F)F)c2)C(F)(F)F)cc2cc(C(=O)NCc3ccccn3)c(Cl)nc21 (stereo not shown) [Compound 55] | 83% |  |  |
| 4.06 | CCn1c(C(=O)NC(c2cccc(C(F)(F)F)c2)C(F)(F)F)cc2cc(C(=O)NCC3CC3)c(Cl)nc21 (stereo not shown) [Compound 57] | 100% |  |  |
| 4.49 | C#CCn1c(C(=O)NC(c2cccc(C(F)(F)F)c2)C(F)(F)F)cc2cc(C(=O)Nc3ccc(Cl)cn3)c(Cl)nc21 (stereo not shown) [Compound 61] | 83% |  |  |
| 3.85 | C#CCn1c(C(=O)NC(c2cc(Cl)c(F)c(Cl)c2)C(F)(F)F)cc2cc(C(=O)NC3CC3)c(Cl)nc21 (stereo not shown) [Compound 68] | 100% | 100% |  |
| 4.01 | C#CCn1c(C(=O)NC(c2cc(Cl)c(F)c(Cl)c2F)C(F)(F)F)cc2cc(C(=O)NC3CC3)c(Cl)nc21 (stereo not shown) [Compound 69] | 100% | 100% |  |
| 3.55 | C#CCn1c(C(=O)NC(c2ccc(F)c(C(F)(F)F)c2)C(F)(F)F)cc2cc(C(=O)NC3CC3)c(Cl)nc21 (stereo not shown) [Compound 70] | 100% | 100% |  |
| 4.21 | CCn1c(C(=O)NC(c2cc(Cl)c(F)c(Cl)c2F)C(F)(F)F)cc2cc(C(=O)NC3CC3)c(C)nc21 (stereo not shown) [Compound 71] | 100% | 100% |  |
| 4.00 | CCn1c(C(=O)NC(c2cc(Cl)c(F)c(Cl)c2)C(F)(F)F)cc2cc(C(=O)NC3CC3)c(C)nc21 (stereo not shown) [Compound 72] | 100% | 100% |  |
| 4.00 | CCn1c(C(=O)NC(c2cccc(C(F)(F)F)c2)C(F)(F)F)cc2cc(C(=O)NC3CC3)c(C(F)(F)F)nc21 (stereo not shown) [Compound 73] | 100% | 100% |  |
| 3.93 | CCn1c(C(=O)NC(c2cccc(C(F)(F)F)c2)C(F)(F)F)cc2cc(C(=O)NC3(C#N)CC3)c(C(F)(F)F)nc21 (stereo not shown) [Compound 74] | 100% | 100% | efficacy ([4]; 500 g/ha): 100%; efficacy ([3]; 500 g/ha): 100% |
| 3.45 | CCC(=O)NCc1cc2cc(C(=O)NC(c3cccc(C(F)(F)F)c3)C(F)(F)F)n(CC)c2nc1C (stereo not shown) [Compound 93] | 100% |  |  |
|  | CCn1c(C(=O)NC(c2cccc(C(F)(F)F)c2)C(F)(F)F)cc2cc(CNC(C)=O)c(C)nc21 (stereo not shown) [Compound 94, 5-(Acetamidomethyl)-1-ethyl-6-methyl-N-{2,2,2-trifluoro-1-[3-(trifluoromethyl)phenyl]ethyl}-1H-pyrrolo[2,3-b]pyridine-2-carboxamide] |  |  | chromatographic logP ([1]; pH 2.7, final compounds of the synthesis examples, read-out: log P (HPLC-MS)): 3.16; pest or weed control at 100 g/ha [3, 8]: 100% |
|  | CN(C(=O)c1cc2cc(C(=O)NC3CC3)c(Cl)nc2n1C)C(c1cccc(C(F)(F)F)c1)C(F)(F)F (stereo not shown) [Compound 96] |  |  | chromatographic logP [1, 9]: 3.63; pest or weed control at 100 g/ha [3, 8]: 100% |
|  | CN(C(=O)c1cc2cc(C(=O)NC3(C#N)CC3)c(Cl)nc2n1C)C(c1cccc(C(F)(F)F)c1)C(F)(F)F (stereo not shown) [Compound 97] |  |  | chromatographic logP [1, 9]: 3.59; pest or weed control at 100 g/ha [3, 8]: 100% |
|  | Cn1c(C(=O)NC(c2cccc(C(F)(F)F)c2)C(F)(F)F)cc2cc(C(=O)NC3CC3)c(Cl)cc21 (stereo not shown) [reference compound] |  |  | Emax at 4 g/ha ([4]; Spodoptera frugiperda, 168 h, SPODFR, 4 g of ai/ha, 7 d, read-out: % Efficacy dat): 17%; Emax at 4 g/ha ([2]; Tetranychus urticae, 144 h, TETRUR, 4 g of ai/ha, 6 d, read-out: % Efficacy dat): 0%; percent efficacy (larval mortality) at 0.8 g/ha ([3]; Phaedon cochleariae, 168 h, PHAECO, 0.8 g of ai/ha, 7 d, read-out: % Efficacy dat): 0% |
|  | CCn1c(C(=O)NC(c2cccc(C(F)(F)F)c2)C(F)(F)F)cc2cc(C(=O)NCC#N)c(Cl)cc21 (stereo not shown) [reference compound] |  |  | Emax at 100 g/ha ([2]; Tetranychus urticae, 144 h, TETRUR, 100 g of ai/ha, 6 d, read-out: % Efficacy dat): 0% |

| Compound | log p [1, 7] | efficacy ([3]; 100 g/ha) | efficacy ([4]; 100 g/ha) | other results |
| --- | --- | --- | --- | --- |
| CCn1c(C(=O)NC(c2cccc(C(F)(F)F)c2)C(F)(F)F)cc2cc(C(=O)NC3CCC3)c(C)nc21 (stereo not shown) [Compound 5] | 3.89 | 100% |  | efficacy [2]: 90% |
| CCn1c(C(=O)NC(c2cccc(C(F)(F)F)c2)C(F)(F)F)cc2cc(C(=O)NCc3ccccn3)c(C)nc21 (stereo not shown) [Compound 7] | 2.99 |  |  | efficacy [2]: 90% |
| CCn1c(C(=O)NC(c2ccc(F)c(Cl)c2)C(F)(F)F)cc2cc(C(=O)NC(C)C)c(Cl)nc21 (stereo not shown) [Compound 17] | 3.88 |  |  | efficacy [2]: 100% |
| C#CCn1c(C(=O)NC(c2cccc(C(F)(F)F)c2)C(F)(F)F)cc2cc(C(=O)NC3CC3)c(Cl)nc21 (stereo not shown) [Compound 23] | 3.45 | 100% | 100% | efficacy (laying of fertile eggs) [5]: 100%; efficacy [2]: 90%; efficacy (kill) [6]: 100% |
| C#CCn1c(C(=O)NC(c2cccc(C(F)(F)F)c2)C(F)(F)F)cc2cc(C(=O)NC3CCC3)c(Cl)nc21 (stereo not shown) [Compound 25] | 3.79 | 100% |  | efficacy [2]: 90% |
| CCn1c(C(=O)NC(c2cccc(C(F)(F)F)c2)C(F)(F)F)cc2cc(C(=O)NC3COC3)c(Cl)nc21 (stereo not shown) [Compound 39] | 3.28 | 100% |  | efficacy [2]: 90% |
| CCn1c(C(=O)NC(c2ccc(F)c(C(F)(F)F)c2)C(F)(F)F)cc2cc(C(=O)NC3(C(N)=S)CC3)c(Cl)nc21 (stereo not shown) [Compound 66] | 3.64 | 100% | 100% | efficacy [2]: 100% |
| CCn1c(C(=O)NC(c2ccc(F)c(C(F)(F)F)c2)C(F)(F)F)cc2cc(C(=O)NC3CC3)c(C)nc21 (stereo not shown) [Compound 76] | 3.67 | 100% | 100% | efficacy [2]: 100% |
